# Tests used:
# fibroblast = experiment: Inhibition of fibroblast, side-by-side comparison of substituents; type: cell-based; conditions: structural formula II, n=1
# Kidney Fibroblast = experiment: MTT proliferation assay, mouse kidney fibroblast; type: cell-based
# Protocol: (§1) Cell proliferation was measured by MTT assay. DMEM with 10% fetal serum was used as cell culture medium. The cells were prepared in suspension (1×10^5/ml), and 100 μL of the suspension was transferred to each well of a 96 wells plate. Once the cells were attached to the plastic, the culture was changed to serum free medium and continued for another 24 hours. The serum free medium was aspirated, and various concentrations of 1-(3′-fluorophenyl)-5-methyl-2(1H)-pyridone (AKF-PD) 1-(3′-bromophenyl)-5-methyl-2(1H)-pyridone (AKF-BR) or PIRFENIDONE (PFD) in 10% serum medium were added into each well with 5 replicates for each concentration. The cells were stained with MTT (10 μL per well) at 24, 48, and 72 hours post drug treatment. After 4 hrs of incubation, the medium with MTT was aspirated from each well. One hundred μL MTT solvent was added to each well for 15 min. The dissolved MTT was then measured with a plate reader at 570 nm.
# [1] = test system: Rat Pulmonary Fibroblasts; experiment: MTT proliferation assay, rat pulmonary fibroblasts; type: cell-based
# Protocol: as §1, with “and incubated” for “and continued”, “hours. Then, the” for “hours. The”, “(AKF-PD) or 1-(3′-bromophenyl)-5-Methyl-2(1H)-Pyridone” for “(AKF-PD) 1-(3′-bromophenyl)-5-methyl-2(1H)-pyridone (AKF-BR)”, “24, or 48” for “24, 48, and 72”, “15 min, and the” for “15 min. The”, “was” for “was then”
# [2] = test system: ICR mice injected with bleomycin; experiment: Bleomycin-induced mouse pulmonary fibrosis, histological score of lung tissue; type: in vivo; conditions: AKF-PD and PFD 500 mg/kg, captopril 12.5 mg/kg by gavage day 1 to 28, Szapiel's method
# Protocol: Under regular care condition, 7-10 weeks old, male, institute of cancer research (ICR) mice, weight 28-39 g, were randomly grouped as normal control, disease, disease/AKF-PD, disease/PFD and disease Captopril group.
# Control group was injected with normal saline once day from day 2 to 15 days. Disease, disease/AKF-PD, disease/PFD and disease/captopril groups were injected with bleomycin once day from day 2 to 15. Control and disease groups were given 0.5% CMC by gavage once a day from day 1 to day 28. 500 mg/kg of AKF-PD CMC suspension and PD CMC suspension and 12.5 mg/kg captopril in saline were administered to respective groups by gavage once day from day 1 to day 28. All animals were sacrificed on day 29 and their lungs were removed for pathological (HE staining) examination.
# Histological scoring for the lung tissue was done according Szapiel's method.
# [3] = test system: SD rat, Unilateral Ureteral Obstruction (UUO) model; experiment: Rat UUO model of renal interstitial fibrosis, histological score (Example 8); type: in vivo; conditions: UUO rats; AKF-PD 500 mg/kg/d, Enalapril 10 mg/kg/d by gavage; 14 days post surgery; Radford's method
# Protocol: Anti-fibrotic effect of AKF-PD was tested on a SD rat model for renal interstitial fibrosis induced by surgical ligation of single side ureter (Unilateral Ureteral Obstruction, UUO, model). Eight weeks old male SD rats (180 g˜220 g) were randomly divided into sham surgical group, disease model group, Enalapril (10 mg/kg/d) group and AKF-PD (500 mg/kg/d) group. […] The animals of the sham surgical group experienced the same surgical procedure except the ligation step. The respective drugs were administrated by gavage to rats in the groups of Enalapril and AKF-PD from one day prior to the procedure to 14 days post surgical procedure. Normal saline was administrated in a similar fashion to the rats in the groups of disease model and sham surgical. The animals were sacrificed 14 days after surgical procedure and their left kidney were removed for pathological (HE staining) examination. Histological scoring for interstitial compartment was done according to Radford's method (Radford et al., Predicting renal outcome in IgA nephropathy. J. Am. Soc. Nephrol. 8: 199-207(1997)).
# [4] = test system: Kun Ming (KM) mice infected with Schistosoma miracidium; experiment: Schistosomial liver fibrosis in Kun Ming mice, egg granuloma area and immunohistology; type: in vivo; conditions: all after Pyquiton 650 mg/kg 4 days, AKF-PD 500 mg/kg daily gavage, γ-interferon 50,000 unit daily i.m., 8 weeks
# Description: Kun Ming (KM) mice were infected with Schistosoma miracidium to induce schistosomial liver fibrosis. […] Ten Schistosoma miracidium were placed on shaved abdominal skin of each mouse for infection. […] Five hundred mg/kg AKF-PD were given daily by gavage to the disinfected mice of infected/AKF-PD group. The disinfected mice were given (i.m.) 50,000 unit γ-interferon daily. […] Drug or normal saline treatment was continued for 8 weeks. All mice were sacrificed one week after discontinue of drug treatment, and the left lobe of liver from each mouse was taken for pathological examination. Examination of HE-stained slices of liver tissue were carried out as follows. In general, after 16 weeks of Schistosoma miracidia infection, the area of schistosomo egg granuloma would directly correlate to the severity of liver fibrosis. Therefore, the area of schistosomo egg granuloma was measured using a high-resolution, color pathology graphic analyzer (HPIAS-1000). The sum of area of 5 granuloma with abundant eggs and the sum of area of 5 granuloma with few eggs were measured for each slice.
molecule,measurement,setting,value
Cc1ccc(=O)n(-c2cccc(I)c2)c1 [1-(3′-iodophenyl)-5-methyl-2(1H)-pyridone],activity inhibiting fibroblast,fibroblast,activities inhibiting fibroblast
Cc1cccc(-n2cc(C)ccc2=O)c1 [5-methyl-1-(3′-methylphenyl)-2(1H)-pyridone],activity inhibiting fibroblast,fibroblast,activities inhibiting fibroblast
"Cc1ccc(=O)n(-c2cccc(Br)c2)c1 [AKF-BR, 1-(3′-bromophenyl)-5-methyl-2(1H)-pyridone]",inhibition of proliferation of kidney fibroblast,Kidney Fibroblast,capable of inhibiting the proliferation of kidney fibroblast
same,Optical Density at 570 nm,"Kidney Fibroblast; 100 μg/ml, 24 h",0.5937 ± 0.0307
same,Optical Density at 570 nm,"Kidney Fibroblast; 100 μg/ml, 48 h",0.5811 ± 0.0161
same,Optical Density at 570 nm,"Kidney Fibroblast; 100 μg/ml, 72 h",0.5363 ± 0.0158
same,Optical Density at 570 nm,"Kidney Fibroblast; 500 μg/ml, 24 h",0.5895 ± 0.0253
same,Optical Density at 570 nm,"Kidney Fibroblast; 500 μg/ml, 48 h",0.5418 ± 0.0221
same,Optical Density at 570 nm,"Kidney Fibroblast; 500 μg/ml, 72 h",0.4731 ± 0.0249
same,Optical Density at 570 nm,"Kidney Fibroblast; 1000 μg/ml, 24 h",0.5723 ± 0.0254
same,Optical Density at 570 nm,"Kidney Fibroblast; 1000 μg/ml, 48 h",0.5192 ± 0.0178
same,Optical Density at 570 nm,"Kidney Fibroblast; 1000 μg/ml, 72 h",0.4161 ± 0.0249
same,order of inhibitory effect,Kidney Fibroblast; kidney fibroblast,AKF-PD>AKF-BR>pirfenidone
same,suppression of proliferation of rat pulmonary fibroblasts,[1],could suppress proliferation of rat pulmonary fibroblasts
same,Optical Density at 570 nm,"[1]; 100 μg/ml, 24 h",0.1654 ± 0.0143
same,Optical Density at 570 nm,"[1]; 100 μg/ml, 48 h",0.1475 ± 0.0211
same,Optical Density at 570 nm,"[1]; 500 μg/ml, 24 h",0.1342 ± 0.0237
same,Optical Density at 570 nm,"[1]; 500 μg/ml, 48 h",0.1292 ± 0.0178
same,Optical Density at 570 nm,"[1]; 1000 μg/ml, 24 h",0.1204 ± 0.0176
same,Optical Density at 570 nm,"[1]; 1000 μg/ml, 48 h",0.1201 ± 0.0342
same,order of inhibitory effect,[1]; rat pulmonary fibroblasts,AKF-PD>AKF-BR>pirfenidone
same,activity inhibiting fibroblast,fibroblast,activities inhibiting fibroblast
C[C@H](CS)C(=O)N1CCC[C@H]1C(=O)O [Captopril],"Histological Score for Lung Tissue, Mean",[2],2.7143
"CCOC(=O)[C@H](CCc1ccccc1)N[C@@H](C)C(=O)N1CCC[C@H]1C(=O)O [Enalapril, reference compound]",Histological Score for Interstitial Compartment,[3],9.21 ± 0.64
"γ-interferon: γ-interferon given i.m. 50,000 unit daily to disinfected mice (protein, UniProt P01580 23-155, looked up) Interferon gamma: HGTVIESLESLNNYFNSSGIDVEEKSLFLDIWRNWQKDGDMKILQSQIISFYLRLFEVLKDNQAISNNISVIESHLITTFFSNSKAKKDAFMSIAKFEVNNPQVQRQAFNELIRVVHQLLPESSLRKRKRSRC","Schistosomo Egg Granuloma Area, Mean",[4]; granuloma with abundant eggs,83706.79 μm^2
same,"Schistosomo Egg Granuloma Area, Mean",[4]; granuloma with few eggs,32407.14 μm^2
